Results published in patent publication US10597388B2, “Pyridazinone herbicides” (FMC CORPORATION, priority 2014, dated 2020).

Assays:
Assay type in all cases: in vivo
[1] = test system: crabgrass, Brazilian (Brazilian crabgrass, Digitaria horizontalis); experiment: Test E greenhouse herbicide test, pre- and postemergence
Summary of the method: (§1)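 Seedlings reaching 2–18 cm (1- to 4-leaf stage) received foliar treatment, while seeds in silt loam received a soil surface spray; the vehicle in each case was a non-phytotoxic solvent mixture including surfactant. Visual scoring versus controls followed 14–21 d later on a 0–100 scale.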

[2] = test system: crabgrass, large (large crabgrass, Digitaria sanguinalis); experiment: as above; details: Preemergence
Summary of the method: as §1

kochia (Kochia scoparia) = experiment: as above
Summary of the method: as §1

[3] = test system: sandbur (southem sandbur, Cenchrus echinatus); experiment: as above
Summary of the method: as §1

[4] = test system: barnyardgrass (Echinochloa crus-galli); experiment: as above
Summary of the method: as §1

[5] = test system: ragweed (common ragweed, Ambrosia elatior); experiment: as above
Summary of the method: as §1

[6] = test system: Italian ryegrass (Lolium multiflorum); experiment: as above
Summary of the method: as §1

[7] = test system: dayflower (Virginia (VA) dayflower, Commelina virginica); experiment: as above
Summary of the method: as §1

[8] = test system: beggarticks (hairy beggarticks, Bidens pilosa); experiment: as above
Summary of the method: as §1

[9] = test system: goosegrass (Eleusine indica); experiment: as above; details: Preemergence
Summary of the method: as §1

[10] = test system: horseweed (Conyza canadensis); experiment: as above; details: Postemergence
Summary of the method: as §1

[11] = test system: pigweed, palmer (palmer pigweed, Amaranthus palmeri); experiment: as above
Summary of the method: as §1

soybean (Glycine max) = experiment: as above
Summary of the method: as §1

[12] = test system: waterhemp_RES1 (ALS & Triazine resistant common waterhemp, Amaranthus rudis); experiment: Test E greenhouse herbicide test, postemergence
Summary of the method: (§2)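 Postemergence spray on potted plants, 1–4 leaves, 2–18 cm; greenhouse 14–21 d; visual rating vs controls, 0 (no effect) to 100 (complete control).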

[13] = test system: waterhemp_RES2 (ALS & HPPD resistant common waterhemp, Amaranthus rudis); experiment: Test E greenhouse herbicide test, postemergence
Summary of the method: as §2

[14] = 62 g ai/ha, Postemergence, scale 0 to 100 (0 no effect, 100 complete control)
[15] = 62 g ai/ha, Preemergence, scale 0 to 100 (0 no effect, 100 complete control)
[16] = 125 g ai/ha, Postemergence, scale 0 to 100 (0 no effect, 100 complete control)
[17] = 250 g ai/ha, Postemergence, scale 0 to 100 (0 no effect, 100 complete control)
[18] = Postemergence, 31 g ai/ha, visual, scale 0 no effect to 100 complete control
[19] = Preemergence, 31 g ai/ha, scale 0 to 100, 0 no effect, 100 complete control
[20] = Preemergence, 125 g ai/ha, visual, scale 0 no effect to 100 complete control
[21] = Preemergence, 250 g ai/ha, visual, scale 0 no effect to 100 complete control
[22] = 62 g ai/ha, scale 0 to 100 (0 no effect, 100 complete control)
[23] = 31 g ai/ha, scale 0 to 100, 0 no effect, 100 complete control
[24] = 125 g ai/ha, visual, scale 0 no effect to 100 complete control
[25] = 250 g ai/ha, visual, scale 0 no effect to 100 complete control
[26] = 125 g ai/ha, Preemergence, scale 0 to 100 (0 no effect, 100 complete control)
[27] = 125 g ai/ha, scale 0 to 100 (0 no effect, 100 complete control)
[28] = 250 g ai/ha, scale 0 to 100 (0 no effect, 100 complete control)
[29] = 31 g ai/ha, visual, scale 0 no effect to 100 complete control

CCc1sc2ccc(C)cc2c1-c1c(O)c(C)nn(C)c1=O [Compound 47]
85: Plant response rating, Kochia (kochia (Kochia scoparia); [15]) | Plant response rating, Kochia (kochia (Kochia scoparia); [17]) | Plant response rating, Beggarticks [8, 18]
60: Plant response rating, Crabgrass, Brazil [1, 21] | Plant response rating, Kochia (kochia (Kochia scoparia); [18]) | Plant response rating, Barnyardgrass [4, 17] | Plant response rating, Horseweed [10, 27] | Plant response rating, Waterhemp_RES1 [12, 29] | Plant response rating, Waterhemp_RES2 [13, 27]
10: Plant response rating, Sandbur [3, 26] | Plant response rating, Barnyardgrass [4, 18] | Plant response rating, Ryegrass, Italian [6, 17] | Plant response rating, Dayflower, VA [7, 17]
25: Plant response rating, Crabgrass, Brazil [1, 16] | Plant response rating, Sandbur [3, 16] | Plant response rating, Pigweed, Palmer [11, 26] | Plant response rating, Soybean (soybean (Glycine max); [14])
15: Plant response rating, Waterhemp_RES2 [13, 29]
40: Plant response rating, Crabgrass, Brazil [1, 17] | Plant response rating, Barnyardgrass [4, 16] | Plant response rating, Horseweed [10, 22] | Plant response rating, Horseweed [10, 29] | Plant response rating, Soybean (soybean (Glycine max); [21])
65: Plant response rating, Pigweed, Palmer [11, 21]
0: Plant response rating, Crabgrass, Brazil [1, 15] | Plant response rating, Crabgrass, Brazil [1, 19] | Plant response rating, Crabgrass, Brazil [1, 20] | Plant response rating, Crabgrass, Large [2, 22] | Plant response rating, Crabgrass, Large [2, 23] | Plant response rating, Crabgrass, Large [2, 24] | Plant response rating, Kochia (kochia (Kochia scoparia); [19]) | Plant response rating, Sandbur [3, 15] | Plant response rating, Sandbur [3, 19] | Plant response rating, Barnyardgrass [4, 15] | Plant response rating, Barnyardgrass [4, 19] | Plant response rating, Ryegrass, Italian [6, 14] | Plant response rating, Ryegrass, Italian [6, 16] | Plant response rating, Ryegrass, Italian [6, 18] | Plant response rating, Dayflower, VA [7, 15] | Plant response rating, Dayflower, VA [7, 16] | Plant response rating, Dayflower, VA [7, 18] | Plant response rating, Dayflower, VA [7, 19] | Plant response rating, Dayflower, VA [7, 20] | Plant response rating, Goosegrass [9, 22] | Plant response rating, Goosegrass [9, 23] | Plant response rating, Goosegrass [9, 24] | Plant response rating, Goosegrass [9, 25] | Plant response rating, Pigweed, Palmer [11, 15] | Plant response rating, Pigweed, Palmer [11, 19] | Plant response rating, Soybean (soybean (Glycine max); [15]) | Plant response rating, Soybean (soybean (Glycine max); [26]) | Plant response rating, Soybean (soybean (Glycine max); [19])
95: Plant response rating, Barnyardgrass [4, 21] | Plant response rating, Ragweed [5, 15] | Plant response rating, Ragweed [5, 16] | Plant response rating, Ragweed [5, 17] | Plant response rating, Waterhemp_RES1 [12, 28]
75: Plant response rating, Kochia (kochia (Kochia scoparia); [20]) | Plant response rating, Horseweed [10, 28]
5: Plant response rating, Ryegrass, Italian [6, 19] | Plant response rating, Dayflower, VA [7, 14]
20: Plant response rating, Crabgrass, Brazil [1, 14] | Plant response rating, Crabgrass, Brazil [1, 18] | Plant response rating, Sandbur [3, 14] | Plant response rating, Sandbur [3, 18] | Plant response rating, Soybean (soybean (Glycine max); [16]) | Plant response rating, Soybean (soybean (Glycine max); [18])
50: Plant response rating, Barnyardgrass [4, 20] | Plant response rating, Ryegrass, Italian [6, 21] | Plant response rating, Waterhemp_RES2 [13, 22]
70: Plant response rating, Kochia (kochia (Kochia scoparia); [14]) | Plant response rating, Sandbur [3, 21] | Plant response rating, Pigweed, Palmer [11, 17] | Plant response rating, Waterhemp_RES1 [12, 22] | Plant response rating, Waterhemp_RES2 [13, 28]
90: Plant response rating, Ragweed [5, 14]
100: Plant response rating, Kochia (kochia (Kochia scoparia); [21]) | Plant response rating, Ragweed [5, 21] | Plant response rating, Beggarticks [8, 14] | Plant response rating, Beggarticks [8, 15] | Plant response rating, Beggarticks [8, 19] | Plant response rating, Beggarticks [8, 20] | Plant response rating, Beggarticks [8, 21]
30: Plant response rating, Barnyardgrass [4, 14] | Plant response rating, Ryegrass, Italian [6, 15] | Plant response rating, Ryegrass, Italian [6, 26] | Plant response rating, Pigweed, Palmer [11, 16] | Plant response rating, Soybean (soybean (Glycine max); [17])
35: Plant response rating, Crabgrass, Large [2, 25] | Plant response rating, Sandbur [3, 17] | Plant response rating, Pigweed, Palmer [11, 14] | Plant response rating, Pigweed, Palmer [11, 18]
80: Plant response rating, Kochia (kochia (Kochia scoparia); [16]) | Plant response rating, Ragweed [5, 18] | Plant response rating, Ragweed [5, 19] | Plant response rating, Dayflower, VA [7, 21] | Plant response rating, Waterhemp_RES1 [12, 27]
98: Plant response rating, Ragweed [5, 26] | Plant response rating, Beggarticks [8, 16] | Plant response rating, Beggarticks [8, 17]

CCc1sc2c(C)cc(C)cc2c1-c1c(O)c(C)nn(C)c1=O [Compound 57]
50: Plant response rating, Kochia (kochia (Kochia scoparia); [18]) | Plant response rating, Sandbur [3, 18] | Plant response rating, Ragweed [5, 18] | Plant response rating, Ryegrass, Italian [6, 17] | Plant response rating, Waterhemp_RES1 [12, 22] | Plant response rating, Waterhemp_RES2 [13, 28]
5: Plant response rating, Goosegrass [9, 24] | Plant response rating, Goosegrass [9, 25]
80: Plant response rating, Sandbur [3, 21] | Plant response rating, Barnyardgrass [4, 18] | Plant response rating, Ryegrass, Italian [6, 21] | Plant response rating, Dayflower, VA [7, 21] | Plant response rating, Horseweed [10, 28]
20: Plant response rating, Crabgrass, Brazil [1, 14] | Plant response rating, Crabgrass, Brazil [1, 16] | Plant response rating, Kochia (kochia (Kochia scoparia); [19]) | Plant response rating, Ryegrass, Italian [6, 16] | Plant response rating, Pigweed, Palmer [11, 14] | Plant response rating, Soybean (soybean (Glycine max); [21]) | Plant response rating, Waterhemp_RES2 [13, 29] | Plant response rating, Waterhemp_RES2 [13, 27]
40: Plant response rating, Crabgrass, Brazil [1, 20] | Plant response rating, Pigweed, Palmer [11, 26] | Plant response rating, Waterhemp_RES1 [12, 29] | Plant response rating, Waterhemp_RES1 [12, 27]
15: Plant response rating, Crabgrass, Brazil [1, 18] | Plant response rating, Dayflower, VA [7, 14] | Plant response rating, Soybean (soybean (Glycine max); [16])
65: Plant response rating, Kochia (kochia (Kochia scoparia); [15]) | Plant response rating, Sandbur [3, 16] | Plant response rating, Ryegrass, Italian [6, 26]
30: Plant response rating, Crabgrass, Brazil [1, 17] | Plant response rating, Sandbur [3, 26] | Plant response rating, Dayflower, VA [7, 17] | Plant response rating, Dayflower, VA [7, 20] | Plant response rating, Pigweed, Palmer [11, 16]
100: Plant response rating, Kochia (kochia (Kochia scoparia); [21]) | Plant response rating, Barnyardgrass [4, 21] | Plant response rating, Ragweed [5, 15] | Plant response rating, Ragweed [5, 26] | Plant response rating, Ragweed [5, 21] | Plant response rating, Beggarticks [8, 14] | Plant response rating, Beggarticks [8, 15] | Plant response rating, Beggarticks [8, 16] | Plant response rating, Beggarticks [8, 17] | Plant response rating, Beggarticks [8, 18] | Plant response rating, Beggarticks [8, 19] | Plant response rating, Beggarticks [8, 20] | Plant response rating, Beggarticks [8, 21]
95: Plant response rating, Ragweed [5, 16] | Plant response rating, Ragweed [5, 17]
70: Plant response rating, Crabgrass, Brazil [1, 21] | Plant response rating, Kochia (kochia (Kochia scoparia); [14]) | Plant response rating, Sandbur [3, 17]
90: Plant response rating, Barnyardgrass [4, 16] | Plant response rating, Barnyardgrass [4, 17] | Plant response rating, Ragweed [5, 19]
60: Plant response rating, Kochia (kochia (Kochia scoparia); [16]) | Plant response rating, Sandbur [3, 14] | Plant response rating, Ragweed [5, 14] | Plant response rating, Horseweed [10, 29] | Plant response rating, Pigweed, Palmer [11, 17] | Plant response rating, Pigweed, Palmer [11, 21] | Plant response rating, Waterhemp_RES1 [12, 28]
75: Plant response rating, Kochia (kochia (Kochia scoparia); [17]) | Plant response rating, Kochia (kochia (Kochia scoparia); [20]) | Plant response rating, Barnyardgrass [4, 20] | Plant response rating, Horseweed [10, 22] | Plant response rating, Horseweed [10, 27]
10: Plant response rating, Ryegrass, Italian [6, 19] | Plant response rating, Dayflower, VA [7, 18] | Plant response rating, Goosegrass [9, 23] | Plant response rating, Pigweed, Palmer [11, 18] | Plant response rating, Soybean (soybean (Glycine max); [17]) | Plant response rating, Soybean (soybean (Glycine max); [18]) | Plant response rating, Waterhemp_RES2 [13, 22]
0: Plant response rating, Crabgrass, Brazil [1, 15] | Plant response rating, Crabgrass, Brazil [1, 19] | Plant response rating, Crabgrass, Large [2, 22] | Plant response rating, Crabgrass, Large [2, 23] | Plant response rating, Crabgrass, Large [2, 24] | Plant response rating, Crabgrass, Large [2, 25] | Plant response rating, Sandbur [3, 15] | Plant response rating, Sandbur [3, 19] | Plant response rating, Barnyardgrass [4, 15] | Plant response rating, Barnyardgrass [4, 19] | Plant response rating, Ryegrass, Italian [6, 14] | Plant response rating, Ryegrass, Italian [6, 18] | Plant response rating, Dayflower, VA [7, 19] | Plant response rating, Goosegrass [9, 22] | Plant response rating, Soybean (soybean (Glycine max); [14]) | Plant response rating, Soybean (soybean (Glycine max); [15]) | Plant response rating, Soybean (soybean (Glycine max); [26]) | Plant response rating, Soybean (soybean (Glycine max); [19])
85: Plant response rating, Barnyardgrass [4, 14]
35: Plant response rating, Ryegrass, Italian [6, 15] | Plant response rating, Dayflower, VA [7, 16] | Plant response rating, Pigweed, Palmer [11, 15] | Plant response rating, Pigweed, Palmer [11, 19]
25: Plant response rating, Dayflower, VA [7, 15]
